# Measured values taken from patent US8354382B2, “Hemifumarate of a pyrazole derivative” (Kissei Pharmaceutical Co., Ltd., priority 2008, dated 2013).
# Experiments:
# [1] = Storage Stability Test (Purity), purity by HPLC and appearance after storage; type: physicochemical; conditions: for Purity (%) after 2 months / Purity (%) at initial point: HPLC
# Protocol: The hemifumarate dihydrate of Example 1 and the above compound (B) each were stored under a condition of 40° C. and 75% relative humidity and 60° C. in open vessels, and the storage stability for 2 months was examined. […] Measurement conditions of HPLC are as follows.
# Detector: ultraviolet-visible absorption spectrophotometer, wavelength: 225 nm
# Column: LUNA C18(2) (produced by Phenomenex), 5 μm, 4.6×250 mm, particle diameter 100×10^−10 m
# Column Temperature: a constant temperature of around 25° C.
# Sample concentration: 1 mg/mL
# Mobile phase A: 10 mM dipotassium hydrogenphosphate aqueous solution adjusted to pH 7.8 with phosphoric acid
# Mobile phase B: acetonitrile
# Gradient of concentration:
# 0 minute: Mobile phase B=22%
# 30 minutes: Mobile phase B=22%
# 50 minutes: Mobile phase B=70%
# 60 minutes: Mobile phase B=70%
# Range of area measurement: for 50 minutes from the start of analysis, except for the areas of the peak of fumaric acid (retention time 2 minutes), the peak of diethyl fumarate which is an impurity (retention time around 44 minutes) and the peak of the blank solution.
# [2] = Storage Stability Test (Deliquescence); type: physicochemical; conditions: stored at 40° C. and 75% relative humidity; up to 2 months
# Protocol: The hemifumarate dihydrate of Example 1, the ¾ fumarate dihydrate of Comparative Example 1 and the above compound (B) were stored under a condition of 40° C. and 75% relative humidity, and existence or nonexistence of the deliquescence was examined.
# [3] = storage condition 40° C. and 75% relative humidity
# [4] = storage condition 60° C. in open vessels
Structure (SMILES),"Purity (%) after 2 months [1, 3]","Purity (%) at initial point [1, 3]","Appearance after 2 months [1, 4]","Purity (%) after 2 months [1, 4]","Appearance at initial point [1, 4]","Purity (%) at initial point [1, 4]",existence or nonexistence of the deliquescence [2]
"Cc1cc(OCCCNCC(C)(C)C(N)=O)ccc1Cc1c(O[C@@H]2OC(CO)[C@@H](O)C(O)C2O)n[nH]c1C(C)C (stereo partly drawn) [compound (B), 3-(3-{4-[3-(β-D-Glucopyanosyloxy)-5-isopropyl-1H-pyazol-4-ylmethyl]-3-methylphenoxy}propylamino)-2,2-dimethylpropionamide]",97.0%,98.7%,Brown,95.3%,White,98.7%,deliquescence was observed from the initial point of the experiment
"Cc1cc(OCCCNCC(C)(C)C(N)=O)ccc1Cc1c(O[C@@H]2O[C@H](CO)[C@@H](O)[C@H](O)[C@H]2O)n[nH]c1C(C)C.O.O.O=C(O)/C=C/C(=O)O [Comparative Example 1, 3-(3-{4-[3-(β-D-Glucopyanosyloxy)-5-isopropyl-1H-pyazol-4-ylmethyl]-3-methyl-phenoxy}propylamino)-2,2-dimethylpropionamide ¾ fumarate dihydrate]",–,–,–,–,–,–,deliquescence was observed from the initial point of the experiment
"Cc1cc(OCCCNCC(C)(C)C(N)=O)ccc1Cc1c(O[C@@H]2O[C@H](CO)[C@@H](O)[C@H](O)[C@H]2O)n[nH]c1C(C)C.O=C(O)/C=C/C(=O)O [Example 1, 3-(3-{4-[3-(β-D-Glucopyranosyloxy)-5-isopropyl-1H-pyrazol-4-ylmethyl]-3-methylphenoxy}propylamino)-2,2-dimethylpropionamide hemifumarate dihydrate]",99.6%,99.5%,White,99.0%,White,99.5%,no deliquescence during 2 months
